From paper PMC9815933, “Computational Drug Repurposing Approach to Identify Novel Inhibitors of ILK Protein for Treatment of Esophageal Squamous Cell Carcinoma” (Journal of Oncology, 2022)

biological target: T1, integrin-linked kinase (ILK) (Homo sapiens, UniProt Q13418); test: SPR (Biacore S200), ILK immobilized on CM5 chip; format: binding
T1 sequence (Q13418 1-452): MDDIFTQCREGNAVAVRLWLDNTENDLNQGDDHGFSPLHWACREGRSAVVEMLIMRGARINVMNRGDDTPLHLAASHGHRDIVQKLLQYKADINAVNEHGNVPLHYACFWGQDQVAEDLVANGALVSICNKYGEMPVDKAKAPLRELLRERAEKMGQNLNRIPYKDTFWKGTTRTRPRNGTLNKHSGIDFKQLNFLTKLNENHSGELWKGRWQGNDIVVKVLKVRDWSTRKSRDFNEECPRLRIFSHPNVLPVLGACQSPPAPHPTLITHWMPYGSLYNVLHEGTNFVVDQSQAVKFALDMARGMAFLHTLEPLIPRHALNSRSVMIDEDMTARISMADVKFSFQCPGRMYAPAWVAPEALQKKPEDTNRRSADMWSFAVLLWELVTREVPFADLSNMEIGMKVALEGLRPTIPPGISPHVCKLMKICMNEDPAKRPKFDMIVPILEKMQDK

| Kd [nM] | Structure (SMILES) |
| --- | --- |
| 2640 | COc1ccc(N=Nc2c(N)n[nH]c2N)cc1 [ILK-IN-3, reference compound] |
| 6410 | Cc1cn(-c2cc(NC(=O)c3ccc(C)c(Nc4nccc(-c5cccnc5)n4)c3)cc(C(F)(F)F)c2)cn1 [d1, Nilotinib] |

| Structure (SMILES) | Kd [nM] |
| --- | --- |
| COc1cc([C@@H]2c3cc4c(cc3[C@@H](O[C@@H]3O[C@@H]5CO[C@@H](c6cccs6)O[C@H]5[C@H](O)[C@H]3O)[C@H]3COC(=O)[C@H]23)OCO4)cc(OC)c1O [d2, Teniposide] | 1790 |
